“Also recorded” adds a separate entry of the source.
What was measured:
primary human T cells = test: Kill curve in primary human (circulating) T cells, celltiter glow viability assay (FIG. 6C); assay type: cell-based; details: for apoptosis / killing of primary human T cells: FIG. 6C, 3 days incubation
Experimental: (Data extracted from J Clin Invest. 2022; 132 (16): e153514). FIG. 6C: in contrast to the AML cells, circulating T cells required about 100-fold higher dose of the GSPT-1 degrader to be depleted. The GSPT-1 degrader used in FIG. 6C is C90009, the same drug as in FIGS. 6A-6B. Blue curve: kill curve with MRT-2359. Primary human T cells were incubated with indicated doses for 3 days followed by viability quantification using a standard celltiter glow assay. Survival was quantified relative to T cells from the same donor treated with DMSO.

GSPT1 = biological target: T1, GSPT1 (Homo sapiens, UniProt P15170+Q96SW2); test: Western blot of GSPT1 protein in primary human T cells after degrader treatment (FIGS. 13A-13B); assay type: cell-based; details: primary human peripheral blood T cells, 24 hours in vitro, compared to DMSO control
T1 construct: GSPT1 protein in primary human T cells isolated from peripheral blood; endogenous in cells; host or cells: primary human T cells from peripheral blood of normal donors
T1 sequence (P15170 whole entry): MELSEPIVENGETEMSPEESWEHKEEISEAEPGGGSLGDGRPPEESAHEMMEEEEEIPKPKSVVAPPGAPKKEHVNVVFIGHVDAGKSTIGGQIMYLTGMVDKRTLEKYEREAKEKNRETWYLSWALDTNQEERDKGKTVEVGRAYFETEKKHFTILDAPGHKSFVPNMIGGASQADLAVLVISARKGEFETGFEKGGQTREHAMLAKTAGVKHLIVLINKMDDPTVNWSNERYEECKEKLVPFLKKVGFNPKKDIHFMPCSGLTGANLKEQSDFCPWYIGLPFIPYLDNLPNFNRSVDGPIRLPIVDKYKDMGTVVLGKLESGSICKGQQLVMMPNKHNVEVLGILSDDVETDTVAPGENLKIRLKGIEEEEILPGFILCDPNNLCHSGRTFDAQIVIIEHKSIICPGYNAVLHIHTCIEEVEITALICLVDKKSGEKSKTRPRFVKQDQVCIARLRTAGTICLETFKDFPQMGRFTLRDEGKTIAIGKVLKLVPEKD
T1 sequence (Q96SW2 whole entry): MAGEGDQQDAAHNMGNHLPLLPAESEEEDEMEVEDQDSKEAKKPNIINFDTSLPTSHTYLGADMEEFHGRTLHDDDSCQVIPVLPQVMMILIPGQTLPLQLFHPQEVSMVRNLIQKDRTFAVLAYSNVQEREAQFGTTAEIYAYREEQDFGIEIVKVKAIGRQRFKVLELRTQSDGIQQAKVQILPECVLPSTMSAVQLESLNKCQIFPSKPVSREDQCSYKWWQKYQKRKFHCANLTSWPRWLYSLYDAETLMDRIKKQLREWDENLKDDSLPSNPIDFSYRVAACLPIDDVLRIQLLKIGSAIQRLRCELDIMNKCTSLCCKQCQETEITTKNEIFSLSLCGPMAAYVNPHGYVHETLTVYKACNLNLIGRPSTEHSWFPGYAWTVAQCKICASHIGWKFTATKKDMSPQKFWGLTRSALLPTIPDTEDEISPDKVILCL
T1 sequence (Q16531 whole entry partner): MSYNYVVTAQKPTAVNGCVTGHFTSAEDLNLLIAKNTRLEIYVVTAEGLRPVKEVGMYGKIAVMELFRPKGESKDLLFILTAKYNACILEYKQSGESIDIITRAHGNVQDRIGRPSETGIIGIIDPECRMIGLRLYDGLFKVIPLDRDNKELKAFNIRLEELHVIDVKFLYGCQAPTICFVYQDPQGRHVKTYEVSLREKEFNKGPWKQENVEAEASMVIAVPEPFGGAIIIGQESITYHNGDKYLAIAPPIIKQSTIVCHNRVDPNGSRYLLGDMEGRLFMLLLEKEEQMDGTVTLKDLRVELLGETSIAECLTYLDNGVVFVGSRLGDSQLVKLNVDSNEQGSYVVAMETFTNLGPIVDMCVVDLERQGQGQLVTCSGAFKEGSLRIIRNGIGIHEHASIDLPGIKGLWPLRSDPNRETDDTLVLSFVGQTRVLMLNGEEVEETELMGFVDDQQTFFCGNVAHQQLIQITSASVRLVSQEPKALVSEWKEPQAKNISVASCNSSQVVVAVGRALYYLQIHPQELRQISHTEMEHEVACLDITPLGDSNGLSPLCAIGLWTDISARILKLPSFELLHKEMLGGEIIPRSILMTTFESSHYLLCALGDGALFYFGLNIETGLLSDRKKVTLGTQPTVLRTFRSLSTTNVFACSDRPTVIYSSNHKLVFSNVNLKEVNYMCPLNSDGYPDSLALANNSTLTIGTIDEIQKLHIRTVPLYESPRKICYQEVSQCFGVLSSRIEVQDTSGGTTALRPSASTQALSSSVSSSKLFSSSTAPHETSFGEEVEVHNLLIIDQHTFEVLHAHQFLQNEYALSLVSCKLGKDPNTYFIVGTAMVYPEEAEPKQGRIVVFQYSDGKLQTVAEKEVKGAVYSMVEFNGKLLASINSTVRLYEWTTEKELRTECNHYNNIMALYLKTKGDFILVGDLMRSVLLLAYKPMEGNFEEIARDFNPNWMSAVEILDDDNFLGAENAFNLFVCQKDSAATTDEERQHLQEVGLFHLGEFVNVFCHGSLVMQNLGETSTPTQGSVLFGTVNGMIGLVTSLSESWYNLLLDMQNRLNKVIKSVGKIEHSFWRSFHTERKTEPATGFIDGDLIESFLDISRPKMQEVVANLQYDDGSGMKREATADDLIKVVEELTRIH
Experimental: FIGS. 13A-13B illustrate degradation of GSPT1 in primary human T cells using CC-90009 and MRT-2359. FIG. 13A is a Western blot analysis of GSPT1 protein in primary human T cells isolated from peripheral blood. T cells were treated with indicated concentrations of GSPT1 degrader for 24 hours in vitro. GSPT1 protein was detected with a monoclonal anti-GSPT1 antibody. FIG. 13B is a graph quantifying GSPT1 protein remaining after degrader treatment as shown in FIG. 13A compared to a DMSO negative control.
(§1) Given that GSPT1-degrading small-molecules are already advancing through early-phase trials for cancer, it was tested whether targeting GSPT1 could selectively affect TRM in vitro. TRM were isolated from healthy human skin (n=6) and their sensitivity was to the GSPT1-degrading drug CC-90009 with that of human blood T cells. […] In a similar study, another small molecule GSPT1 degrader, MRT-2359, was used to treat peripheral blood T cells from normal human donors for 24 hours in vitro at various concentrations.

[1] = tested on: TRM isolated from healthy human skin; test: Viability of skin TRM versus blood T cells after GSPT1 degrader treatment (FIG. 10D); assay type: cell-based; details: 72 hours of treatment, n=6
Experimental: as §1

[2] = tested on: acute myeloid leukemia (AML) cells; details: FIG. 6A; data extracted from J Clin Invest. 2022; 132 (16): e153514; cited from earlier work
primary leukemia cells = details: FIG. 6B; data extracted from J Clin Invest. 2022; 132 (16): e153514; cited from earlier work

Compound	apoptosis / killing of primary human T cells (primary human T cells)	GSPT1 protein remaining after degrader treatment (GSPT1)	dosage required for same level of apoptosis in primary (circulating) T cells versus cells of FIGS. 6A-6B (primary human T cells; FIG. 6C versus FIGS. 6A-6B)	dose required to deplete circulating T cells relative to AML cells (primary human T cells; primary human T cells incubated 3 days, survival relative to DMSO, compared with FIGS. 6A-6B)	viability of skin TRM compared with circulating T cells [1]	depletion / apoptosis of AML cells [2]	depletion / apoptosis of primary leukemia cells (primary leukemia cells)
O=C1CCC(N2Cc3ccc(COC(=O)Nc4cc(OC(F)(F)F)ccc4F)cc3C2=O)C(=O)N1 (stereo not drawn) [MRT-2359]	does apoptosis	significant dose-dependent loss of GSPT1 protein; also recorded: dose-dependent downregulation of GSPT1 protein	–	–	–	–	–
O=C1CCC(N2Cc3cc(CNC(=O)C(F)(F)c4ccc(Cl)cc4)ccc3C2=O)C(=O)N1 (stereo not drawn) [CC-90009]	does apoptosis	significant dose-dependent loss of GSPT1 protein; also recorded: dose-dependent downregulation of GSPT1 protein	dramatically increased	about 100 fold	reduced viability	dose-dependent apoptosis; also recorded: dose-dependent depletion	dose-dependent apoptosis; also recorded: dose-dependent depletion
